Laboratory results published in ChEMBL document CHEMBL3734649, “H2O-mediated isatin spiro-epoxide ring opening with NaCN: Synthesis of novel 3-tetrazolylmethyl-3-hydroxy-oxindole hybrids and their anticancer evaluation” (Eur J Med Chem, 2015).
Activity calls are given as the source filed them. The calls are words filed in the database; no cut-off is given here.

Legend:
[1] = Anticancer activity against human BT549 cells after 48 hrs by MTT assay; type: functional, cell-based; conditions: BT-549, 48 h
MDA-MB-231 = assay: Anticancer activity against human MDA-MB-231 cells after 48 hrs by MTT assay; type: functional, cell-based; conditions: MDA-MB-231, 48 h
[2] = Anticancer activity against human PC3 cells after 48 hrs by MTT assay; type: functional, cell-based; conditions: PC-3, 48 h
[3] = Anticancer activity against human DU145 cells after 48 hrs by MTT assay; type: functional, cell-based; conditions: DU-145, 48 h
[4] = Anticancer activity against human PA1 cells after 48 hrs by MTT assay; type: functional, cell-based; conditions: PA-1, 48 h
DU-145 [5] = assay: Induction of apoptosis in human DU145 cells assessed as condensed,pyknotic and fragmented nuclei at 1.25 to 5 uM after 48 hrs by DAPI staining based fluorescent microscopic analysis; type: functional, cell-based
DU-145 [6] = assay: Induction of apoptosis in human DU145 cells assessed as reduction in viable cells at 1.25 to 5 uM after 24 hrs by phase contrast microscopic analysis; type: functional, cell-based
[7] = Cytotoxicity against human RWPE1 cells after 48 hrs by MTT assay; type: cell-based; conditions: RWPE-1, 48 h
[8] = Selectivity index, ratio of IC50 for human RWPE1 cells to IC50 for human DU145 cells; type: functional
DU-145 [9] = assay: Anticlonogenic activity against human DU145 cells assessed as inhibition of colony formation of cells incubated for 24 hrs followed by compound washout measured after 14 days by methylene-blue staining-based assay; type: functional, cell-based
DU-145 [10] = assay: Induction of apoptosis in human DU145 cells assessed as apoptotic bodies at 1.25 to 5 uM after 24 hrs by phase contrast microscopic analysis; type: functional, cell-based
DU-145 [11] = assay: Induction of apoptosis in human DU145 cells assessed as […] deformation at 1.25 to 5 uM after 24 hrs by phase contrast microscopic analysis; type: functional, cell-based
DU-145 [12] = assay: Induction of apoptosis in human DU145 cells assessed as cell shrinkage at 1.25 to 5 uM after 24 hrs by phase contrast microscopic analysis; type: functional, cell-based
DU-145 [13] = assay: Induction of apoptosis in human DU145 cells assessed as apoptotic bodies at 1.25 to 5 uM after 48 hrs by acridine orange/ethidium bromide staining based fluorescent microscopic analysis; type: functional, cell-based
DU-145 [14] = assay: Induction of apoptosis in human DU145 cells assessed as membrane blebbing at 1.25 to 5 uM after 48 hrs by acridine orange/ethidium bromide staining based fluorescent microscopic analysis; type: functional, cell-based
DU-145 [15] = assay: Induction of apoptosis in human DU145 cells assessed as cell shrinkage at 1.25 to 5 uM after 48 hrs by acridine orange/ethidium bromide staining based fluorescent microscopic analysis; type: functional
DU-145 [16] = assay: Induction of apoptosis in human DU145 cells assessed as chromatin condensation at 1.25 to 5 uM after 48 hrs by acridine orange/ethidium bromide staining based fluorescent microscopic analysis; type: functional, cell-based
DU-145 [17] = assay: Induction of DNA fragmentation in human DU145 cells assessed as smear formation at 1.25 to 2.5 uM after ethidium bromide staining based agarose gel electrophoresis; type: functional, cell-based
DU-145 [18] = assay: Induction of DNA fragmentation in human DU145 cells assessed as DNA ladder formation at 5 uM after ethidium bromide staining based agarose gel electrophoresis; type: functional, cell-based
[19] = Cell cycle arrest in human DU145 cells assessed as accumulation at G1 phase at 2 uM after 24 hrs by propidium iodide staining based flow cytometric analysis (reference value: 78.18%); type: functional; conditions: DU-145
[20] = Cell cycle arrest in human DU145 cells assessed as accumulation at S phase at 2 uM after 24 hrs by propidium iodide staining based flow cytometric analysis (reference value: 3.39%); type: functional; conditions: DU-145
[21] = Cell cycle arrest in human DU145 cells assessed as accumulation at G2/M phase at 2 uM after 24 hrs by propidium iodide staining based flow cytometric analysis (reference value: 16.66%); type: functional; conditions: DU-145
[22] = Cell cycle arrest in human DU145 cells assessed as accumulation at G1 phase at 4 uM after 24 hrs by propidium iodide staining based flow cytometric analysis (reference value: 78.18%); type: functional; conditions: DU-145
[23] = Cell cycle arrest in human DU145 cells assessed as accumulation at S phase at 4 uM after 24 hrs by propidium iodide staining based flow cytometric analysis (reference value: 3.39%); type: functional; conditions: DU-145
[24] = Cell cycle arrest in human DU145 cells assessed as accumulation at G2/M phase at 4 uM after 24 hrs by propidium iodide staining based flow cytometric analysis (reference value: 16.66%); type: functional; conditions: DU-145
[25] = Cell cycle arrest in human DU145 cells assessed as accumulation at G1 phase at 8 uM after 24 hrs by propidium iodide staining based flow cytometric analysis (reference value: 78.18%); type: functional; conditions: DU-145
[26] = Cell cycle arrest in human DU145 cells assessed as accumulation at S phase at 8 uM after 24 hrs by propidium iodide staining based flow cytometric analysis (reference value: 3.39%); type: functional; conditions: DU-145
[27] = Cell cycle arrest in human DU145 cells assessed as accumulation at G2/M phase at 8 uM after 24 hrs by propidium iodide staining based flow cytometric analysis (reference value: 16.66%); type: functional; conditions: DU-145
DU-145 [28] = assay: Induction of apoptosis in human DU145 cells assessed as dead cells at 1.25 uM after 24 hrs by annexin V-FITC/propidium iodide staining based flow cytometric analysis (reference value: 2.78%); type: functional
DU-145 [29] = assay: Induction of apoptosis in human DU145 cells assessed as late apoptotic cells at 1.25 uM after 24 hrs by annexin V-FITC/propidium iodide staining based flow cytometric analysis (reference value: 4.48%); type: functional
DU-145 [30] = assay: Induction of apoptosis in human DU145 cells assessed as viable cells at 1.25 uM after 24 hrs by annexin V-FITC/propidium iodide staining based flow cytometric analysis (reference value: 89.63%); type: functional; conditions: DU-145, 24 h, read-out: Activity
DU-145 [31] = assay: Induction of apoptosis in human DU145 cells assessed as early apoptotic cells at 1.25 uM after 24 hrs by annexin V-FITC/propidium iodide staining based flow cytometric analysis (reference value: 3.11%); type: functional
DU-145 [32] = assay: Induction of apoptosis in human DU145 cells assessed as dead cells at 2.5 uM after 24 hrs by annexin V-FITC/propidium iodide staining based flow cytometric analysis (reference value: 2.78%); type: functional
DU-145 [33] = assay: Induction of apoptosis in human DU145 cells assessed as late apoptotic cells at 2.5 uM after 24 hrs by annexin V-FITC/propidium iodide staining based flow cytometric analysis (reference value: 4.48%); type: functional
DU-145 [34] = assay: Induction of apoptosis in human DU145 cells assessed as viable cells at 2.5 uM after 24 hrs by annexin V-FITC/propidium iodide staining based flow cytometric analysis (reference value: 89.63%); type: functional; conditions: DU-145, 24 h, read-out: Activity
DU-145 [35] = assay: Induction of apoptosis in human DU145 cells assessed as early apoptotic cells at 2.5 uM after 24 hrs by annexin V-FITC/propidium iodide staining based flow cytometric analysis (reference value: 3.11%); type: functional
DU-145 [36] = assay: Induction of apoptosis in human DU145 cells assessed as dead cells at 5 uM after 24 hrs by annexin V-FITC/propidium iodide staining based flow cytometric analysis (reference value: 2.78%); type: functional
DU-145 [37] = assay: Induction of apoptosis in human DU145 cells assessed as late apoptotic cells at 5 uM after 24 hrs by annexin V-FITC/propidium iodide staining based flow cytometric analysis (reference value: 4.48%); type: functional
DU-145 [38] = assay: Induction of apoptosis in human DU145 cells assessed as viable cells at 5 uM after 24 hrs by annexin V-FITC/propidium iodide staining based flow cytometric analysis (reference value: 89.63%); type: functional; conditions: DU-145, 24 h, read-out: Activity
DU-145 [39] = assay: Induction of apoptosis in human DU145 cells assessed as early apoptotic cells at 5 uM after 24 hrs by annexin V-FITC/propidium iodide staining based flow cytometric analysis (reference value: 3.11%); type: functional
DU-145 [40] = assay: Induction of apoptosis in human DU145 cells assessed as loss of mitochondrial membrane potential at 5 uM after 24 hrs by rhodamine 123 based spectrofluorometric analysis relative to control; type: functional
DU-145 [41] = assay: Induction of apoptosis in human DU145 cells assessed as ROS production after 24 hrs by carboxy-DCFDA based fluorescence microscopic analysis; type: functional, cell-based
DU-145 [42] = assay: Induction of apoptosis in human DU145 cells after 24 hrs by annexin V-FITC/propidium iodide staining based flow cytometric analysis; type: functional, cell-based

Compound `O=C1N(Cc2ccccc2)c2ccc(Br)cc2C1(O)Cc1nnn[nH]1` (stereo not drawn) has an IC50 [1] of 39.6 µM, an IC50 (MDA-MB-231) of 96.1 µM and an IC50 [2] of 75.8 µM. For the same compound, the IC50 [3] was 46.2 µM and the IC50 [4] was 74.4 µM.

Compound `CN1C(=O)C(O)(Cc2nnn[nH]2)c2cc(F)ccc21` (stereo not drawn) has an IC50 [1] greater than 100 µM, an IC50 (MDA-MB-231) greater than 100 µM and an IC50 [2] of 38.2 µM. It also gave an IC50 [3] greater than 100 µM and an IC50 [4] greater than 100 µM.

`O=C1N(Cc2ccccc2)c2ccc(F)cc2C1(O)Cc1nnn[nH]1` (stereo not drawn) showed an IC50 [1] of 78.7 µM, an IC50 (MDA-MB-231) of 27.2 µM and an IC50 [2] greater than 100 µM. It also gave an IC50 [3] greater than 100 µM and an IC50 [4] greater than 100 µM.

Work on `O=C1N(Cc2ccccc2)c2ccc(Cl)cc2C1(O)Cc1nnn[nH]1` (stereo not drawn) yielded an IC50 [1] greater than 100 µM, an IC50 (MDA-MB-231) of 30.3 µM and an IC50 [2] greater than 100 µM. The IC50 [3] was greater than 100 µM and the IC50 [4] was 100 µM.

For `CCN1C(=O)C(O)(Cc2nnn[nH]2)c2cc(Cl)ccc21` (stereo not drawn), the IC50 [1] was 85.4 µM, the IC50 (MDA-MB-231) was 84.9 µM and the IC50 [2] was 79.3 µM. It also gave an IC50 [3] of 21.5 µM and an IC50 [4] of 49.5 µM.

In the case of `O=C1N(Cc2ccc(Br)cc2)c2ccc(Cl)cc2C1(O)Cc1nnn[nH]1` (stereo not drawn), the IC50 [1] is reported as 74.5 µM, the IC50 (MDA-MB-231) is reported as greater than 100 µM and the IC50 [2] is reported as 87.9 µM. The IC50 [3] was 19.5 µM and the IC50 [4] was 35.8 µM.

With `Cc1ccc2c(c1)C(O)(Cc1nnn[nH]1)C(=O)N2Cc1ccccc1` (stereo not drawn) the Activity (DU-145 [5]) was “Active”, the Activity (DU-145 [6]) was “Active” and the IC50 [1] was 91.5 µM. The IC50 (MDA-MB-231) was greater than 100 µM, the IC50 [2] was 11.7 µM and the IC50 [3] was 4.26 µM. The IC50 [4] was 33.9 µM, the IC50 [7] was 20.9 µM and the “Ratio IC50” value [8] was 5. For the same compound, the Activity (DU-145 [9]) was “Dose-dependent effect”, the Activity (DU-145 [10]) was “Active” and the Activity (DU-145 [11]) was “Active”. For the same compound, the Activity (DU-145 [12]) was “Active”, the Activity (DU-145 [13]) was “Active” and the Activity (DU-145 [14]) was “Active”. The Activity (DU-145 [15]) was “Active”, the Activity (DU-145 [16]) was “Active” and the Activity (DU-145 [17]) was “Active”. The Activity (DU-145 [18]) was “Active”, the Activity [19] was 44.8% and the Activity [20] was 12.3%. The Activity [21] was 39.8%, the Activity [22] was 36.3% and the Activity [23] was 6.71%. It also gave an Activity [24] of 52.8%, an Activity [25] of 17% and an Activity [26] of 7.34%. The Activity [27] was 72.8%, the Activity (DU-145 [28]) was 6.27% and the Activity (DU-145 [29]) was 8.51%. It also gave a viability at 1.25 µM (DU-145 [30]) of 68.6%, an Activity (DU-145 [31]) of 16.63% and an Activity (DU-145 [32]) of 3.2%. For the same compound, the Activity (DU-145 [33]) was 11.6%, the viability at 2.5 µM (DU-145 [34]) was 58.1% and the Activity (DU-145 [35]) was 27%. The Activity (DU-145 [36]) was 1.31%, the Activity (DU-145 [37]) was 12.59% and the viability at 5 µM (DU-145 [38]) was 41.3%. The Activity (DU-145 [39]) was 44.77%, the Activity (DU-145 [40]) was 45.4% and the Activity (DU-145 [41]) was “Dose-dependent effect”. For the same compound, the Activity (DU-145 [42]) was “Dose-dependent effect”.

With `O=C1N(Cc2ccc(Br)cc2)c2ccc(Br)cc2C1(O)Cc1nnn[nH]1` (stereo not drawn) the IC50 [1] was 88.8 µM, the IC50 (MDA-MB-231) was 65.4 µM and the IC50 [2] was greater than 100 µM. The IC50 [3] was 59.6 µM and the IC50 [4] was greater than 100 µM.

Compound `CN1C(=O)C(O)(Cc2nnn[nH]2)c2ccccc21` (stereo not drawn) has an IC50 [1] greater than 100 µM, an IC50 (MDA-MB-231) greater than 100 µM and an IC50 [2] of 44.8 µM. The IC50 [3] was 36.8 µM and the IC50 [4] was 45.5 µM.

Work on `CN1C(=O)C(O)(Cc2nnn[nH]2)c2cc(Cl)ccc21` (stereo not drawn) yielded an IC50 [1] greater than 100 µM, an IC50 (MDA-MB-231) greater than 100 µM and an IC50 [2] greater than 100 µM. For the same compound, the IC50 [3] was 76 µM and the IC50 [4] was greater than 100 µM.
